Reference: PMC10374108, “Structural and biochemical characterization of the key components of an auxin degradation operon from the rhizosphere bacterium Variovorax” (PLOS Biology, 2023)
Where “and” joins values, the source holds several entries; their conditions need not be identical. Equal entries are not always repeated. Entries after “also recorded” stand apart in the source; their conditions may differ. Where two headings read alike, the source gives them in different places.

What was measured:
[1] = molecular target: IadK2 (Variovorax paradoxus, UniProt T1X8R6); assay: ITC, auxins binding to IadK2
Experimental: (§1) ITC experiments were performed using a MicroCal PEAQ-ITC system (Malvern). All the experiments were performed at […] in a buffer containing 25 mM Tris-HCl (pH 7.5) and 150 mM NaCl (unless otherwise stated). […] Data was analyzed using the MicroCal PEAQ-ITC analysis software. All the measurements were repeated at least 2 times.

[2] = molecular target: IadK2 mutants (Variovorax paradoxus, UniProt T1X8R6, R199A); assay: ITC, IAA binding to IadK2 mutants; set-up: species or system Variovorax paradoxus CL14; settings: Kd
Experimental: as §1

[3] = molecular target: IadK2 mutants (Variovorax paradoxus, UniProt T1X8R6, S104V); assay: ITC, IAA binding to IadK2 mutants; set-up: species or system Variovorax paradoxus CL14; settings: Kd
Experimental: as §1

[4] = molecular target: IadK2 mutants (Variovorax paradoxus, UniProt T1X8R6, S104V/W172L); assay: ITC, IAA binding to IadK2 mutants; set-up: species or system Variovorax paradoxus CL14
Experimental: as §1

[5] = molecular target: IadK2 mutants (Variovorax paradoxus, UniProt T1X8R6, W172A); assay: ITC, IAA binding to IadK2 mutants; set-up: species or system Variovorax paradoxus CL14; settings: IadK2 mutant W172A, replicates
Experimental: as §1

[6] = molecular target: IadK2 mutants (Variovorax paradoxus, UniProt T1X8R6, Y311A); assay: ITC, IAA binding to IadK2 mutants; set-up: species or system Variovorax paradoxus CL14; settings: Kd
Experimental: as §1

[7] = molecular target: IadK2 mutants; assay: ITC, IAA binding to IadK2 mutants; set-up: species or system Variovorax paradoxus CL14; settings: IadK2 mutant W172L, replicates
Experimental: as §1

[8] = test system: IadK3 point mutants; assay: IAA binding to IadK3 point mutants (response to reviewers); set-up: species or system Variovorax paradoxus CL14; settings: pocket residues replaced by those of IadK2
Source text: We have performed point mutations for substitute residues in the potential ligand binding pocket of AdgA (now named as IadK3) with corresponding amino acids of AdgB (now named as IadK2). […] One potential explanation could be that residues beyond the putative ligand binding pocket may regulate the conformation of IadK3 and ligand binding specificity. Further studies would be required to further examined the ligand binding specificity of IadK3.

[9] = molecular target: T1, IadC (Variovorax paradoxus, UniProt C5CSP5); assay: ITC, IAA binding to IadC; set-up: species or system Variovorax paradoxus CL14
T1 sequence (C5CSP5 1-330): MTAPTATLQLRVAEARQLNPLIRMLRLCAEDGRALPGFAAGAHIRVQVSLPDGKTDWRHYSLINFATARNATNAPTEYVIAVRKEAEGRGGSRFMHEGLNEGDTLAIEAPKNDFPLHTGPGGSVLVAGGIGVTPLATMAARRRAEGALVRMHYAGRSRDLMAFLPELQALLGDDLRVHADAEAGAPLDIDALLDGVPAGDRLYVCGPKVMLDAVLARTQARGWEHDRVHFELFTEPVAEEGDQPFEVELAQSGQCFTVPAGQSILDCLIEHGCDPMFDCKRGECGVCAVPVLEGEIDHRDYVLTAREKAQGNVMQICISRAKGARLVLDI
Experimental: as §1

[10] = molecular target: IadF (Variovorax paradoxus, UniProt A0A0H2MF82); assay: ITC, IAA binding to IadF; set-up: species or system Variovorax paradoxus CL14
Experimental: as §1

[11] = molecular target: IadH (Variovorax paradoxus, UniProt A0A0H2LZB5); assay: ITC, IAA binding to IadH; set-up: species or system Variovorax paradoxus CL14
Experimental: as §1

[12] = molecular target: IadI (Variovorax paradoxus, UniProt A0A0H2M433); assay: ITC, IAA binding to IadI; set-up: species or system Variovorax paradoxus CL14
Experimental: as §1

[13] = molecular target: IadJ (Variovorax paradoxus, UniProt A0A0H2M0A9); assay: ITC, IAA binding to IadJ; set-up: species or system Variovorax paradoxus CL14
Experimental: as §1

[14] = test system: IadK2; assay: Thermal shift assay (TSA), IadK2 with IAA and analogs; type: binding, Variovorax paradoxus CL14
Experimental: (§2) Ligands concentrations were tested at 2- to […] excess (10 to 1,000 μM) relative to the proteins (5 μM). The fluorescence dye SYPRO Orange at a final of 200-fold dilution was used to monitor the unfolding of proteins. The protein and ligand were incubated for 10 min at room temperature before the addition of SYPRO Orange dye. The QuantStudio 1 Plus real-time PCR system (Thermo Fisher) was used to control the temperature increasing from […] to […] with an increment of […] and to monitor the fluorescence (excitation: 520 ± 10 nm and emission: 558 ± 10 nm). Each tested group was run in triplicate and repeated. Data was imported to the Protein Thermal Shift software for analysis and plotting.

[15] = test system: IadK3; assay: Thermal shift assay (TSA), IadK3 with IAA and analogs; type: binding, Variovorax paradoxus CL14; settings: IadK3 with IAA, replicates
Experimental: as §2

[16] = test system: Iad proteins; assay: Thermal shift assay (TSA), other Iad proteins with IAA; type: binding, Variovorax paradoxus CL14; settings: for ΔTm: replicates
Experimental: as §2

[17] = molecular target: MarR; set-up: method as in Conway et al. 2022; settings: MarR domains, high affinity IAA binding; ref Conway et al. 2022; cited from earlier work

IadH, sequence (A0A0H2LZB5 entry or part of it): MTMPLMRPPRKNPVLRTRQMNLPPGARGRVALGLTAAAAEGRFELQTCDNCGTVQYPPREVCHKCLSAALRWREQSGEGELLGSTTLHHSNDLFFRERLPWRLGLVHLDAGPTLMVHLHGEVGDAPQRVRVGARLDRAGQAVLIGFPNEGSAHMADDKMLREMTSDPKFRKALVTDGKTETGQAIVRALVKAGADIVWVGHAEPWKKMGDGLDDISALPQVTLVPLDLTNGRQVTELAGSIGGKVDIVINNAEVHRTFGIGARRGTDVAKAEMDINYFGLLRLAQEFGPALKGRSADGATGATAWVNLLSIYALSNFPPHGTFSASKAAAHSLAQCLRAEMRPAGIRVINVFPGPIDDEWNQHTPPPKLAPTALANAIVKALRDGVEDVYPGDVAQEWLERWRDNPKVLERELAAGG
IadK2 mutants (Variovorax paradoxus, UniProt T1X8R6, S104V), sequence (T1X8R6 entry or part of it S104V): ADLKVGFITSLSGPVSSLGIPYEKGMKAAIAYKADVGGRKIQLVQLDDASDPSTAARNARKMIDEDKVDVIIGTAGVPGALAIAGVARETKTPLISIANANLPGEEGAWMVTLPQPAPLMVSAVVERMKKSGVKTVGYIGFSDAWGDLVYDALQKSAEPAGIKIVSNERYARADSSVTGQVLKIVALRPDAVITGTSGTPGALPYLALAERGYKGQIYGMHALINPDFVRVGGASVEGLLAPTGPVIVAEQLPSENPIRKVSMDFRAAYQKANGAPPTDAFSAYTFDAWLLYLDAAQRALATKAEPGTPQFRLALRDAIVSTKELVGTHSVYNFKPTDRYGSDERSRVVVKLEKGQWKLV
IadK2 mutants (Variovorax paradoxus, UniProt T1X8R6, R199A), sequence (T1X8R6 entry or part of it R199A): as the sequence (T1X8R6 entry or part of it S104V) above, with V77S, R172A counted along it
IadK2 mutants (Variovorax paradoxus, UniProt T1X8R6, S104V/W172L), sequence (T1X8R6 entry or part of it S104V/W172L): as the sequence (T1X8R6 entry or part of it S104V) above, with W145L counted along it
IadK2 mutants (Variovorax paradoxus, UniProt T1X8R6, Y311A), sequence (T1X8R6 entry or part of it Y311A): as the sequence (T1X8R6 entry or part of it S104V) above, with V77S, Y284A counted along it
IadK2 (Variovorax paradoxus, UniProt T1X8R6), sequence (T1X8R6 entry or part of it): as the sequence (T1X8R6 entry or part of it S104V) above, with V77S counted along it
IadF, sequence (A0A0H2MF82 entry or part of it): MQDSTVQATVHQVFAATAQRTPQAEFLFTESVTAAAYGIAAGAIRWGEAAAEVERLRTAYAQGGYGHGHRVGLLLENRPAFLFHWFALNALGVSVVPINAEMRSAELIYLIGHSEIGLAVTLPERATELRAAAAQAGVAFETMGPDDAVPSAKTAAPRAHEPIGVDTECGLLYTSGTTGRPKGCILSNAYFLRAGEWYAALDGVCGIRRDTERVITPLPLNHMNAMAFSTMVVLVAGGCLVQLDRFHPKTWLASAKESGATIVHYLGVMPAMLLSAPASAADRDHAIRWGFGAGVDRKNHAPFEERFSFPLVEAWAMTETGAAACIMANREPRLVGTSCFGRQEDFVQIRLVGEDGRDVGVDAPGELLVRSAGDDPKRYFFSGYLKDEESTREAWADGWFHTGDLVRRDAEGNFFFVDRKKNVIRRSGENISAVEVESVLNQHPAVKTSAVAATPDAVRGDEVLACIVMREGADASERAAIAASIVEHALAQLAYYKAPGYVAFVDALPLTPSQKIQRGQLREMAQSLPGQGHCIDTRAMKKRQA
IadI, sequence (A0A0H2M433 entry or part of it): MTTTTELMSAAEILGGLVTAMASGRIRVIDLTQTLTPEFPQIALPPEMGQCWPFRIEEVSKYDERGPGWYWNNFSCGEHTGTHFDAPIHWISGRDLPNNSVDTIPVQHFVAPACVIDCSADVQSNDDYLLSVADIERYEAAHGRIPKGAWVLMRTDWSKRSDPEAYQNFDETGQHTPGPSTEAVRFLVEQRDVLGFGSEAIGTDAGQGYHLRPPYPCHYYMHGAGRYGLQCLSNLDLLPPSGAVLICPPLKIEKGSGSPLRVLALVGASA
IadK2 mutants (Variovorax paradoxus, UniProt T1X8R6, W172A), sequence (T1X8R6 entry or part of it W172A): as the sequence (T1X8R6 entry or part of it S104V) above, with V77S, W145A counted along it
IadJ, sequence (A0A0H2M0A9 entry or part of it): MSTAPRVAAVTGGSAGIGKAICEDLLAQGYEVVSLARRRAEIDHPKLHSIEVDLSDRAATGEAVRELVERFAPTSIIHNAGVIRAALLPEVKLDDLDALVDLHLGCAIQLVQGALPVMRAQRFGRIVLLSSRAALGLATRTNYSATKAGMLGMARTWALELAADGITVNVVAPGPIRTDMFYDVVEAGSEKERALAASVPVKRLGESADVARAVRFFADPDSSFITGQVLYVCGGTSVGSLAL

In the case of O=C(O)Cc1c[nH]c2ccccc12 [IAA, indole-3-acetic acid], the Kd ([1]; ITC, biphasic isotherm, IadK2 + IAA, mean ± SEM, 3 measurements, read-out: KD1) is reported as 530 ± 80 nM, the Kd ([1]; ITC, biphasic isotherm, IadK2 + IAA, mean ± SEM, 3 measurements, read-out: KD2) is reported as 9 ± 3.05 nM and the Kd ([1]; IadK2, ITC, replicates, read-out: Kd1) is reported as 500 nM and 600 nM (2×). The Kd ([1]; IadK2, ITC, replicates, read-out: Kd2) was 8.3 nM and 12 nM and 11.4 nM, the Kd ([2]; IadK2 R199A, IAA, mean ± SD) was 11.2 ± 1.8 µM and the Kd ([2]; IadK2 mutant R199A, replicates) was 9.5 µM and 10.4 µM. For the same molecule, the Kd ([3]; IadK2 S104V, IAA, mean ± SD) was 1100 ± 300 nM, the Kd ([3]; IadK2 mutant S104V, replicates) was 880 nM and 900 nM and 1500 nM and the Kd ([4]; IadK2 mutant W172L/S104V, replicates) was greater than 100 µM. The Kd ([4]; Kd, IadK2 W172L/S104V, IAA) was greater than 100 µM, the Kd ([4]; Kd, IadK2 mutant W172L/S104V, replicates) was greater than 100 µM and the Kd [5] was greater than 100 µM. The Kd ([5]; Kd) was greater than 100 µM, the Kd ([6]; IadK2 Y311A, IAA, mean ± SD) was 21 ± 3 µM and the Kd ([6]; IadK2 mutant Y311A, replicates) was 17 µM and 24 µM and 22 µM. For the same molecule, the Kd [7] was “weak binding”, the “binding of IAA to IadK3 point mutants” value [8] was “none of the mutations could make IadK3 bind with IAA” and the “IAA binding (ITC)” value [9] was “no binding detected”. The Kd ([9]; ITC, replicates) was greater than 100 µM, the “IAA binding (ITC)” value [10] was “no binding detected” and the Kd ([10]; ITC, replicates) was greater than 100 µM. The “IAA binding (ITC)” value [11] was “no binding detected”, the Kd ([11]; ITC, replicates) was greater than 100 µM and the “IAA binding (ITC)” value [12] was “no binding detected”. The Kd ([12]; ITC, replicates) was greater than 100 µM, the “IAA binding (ITC)” value [13] was “no binding detected” and the Kd ([13]; ITC, replicates) was greater than 100 µM. For the same molecule, the “Tm change with IAA (TSA)” value ([14]; IadK2 WT, replicates, Fig 2E) was 5.98, the ΔTm ([14]; IadK2 with IAA, replicates) was 5.98 °C and the “stabilization of IadK2 (melting temperature, TSA)” value ([14]; result in words) was “substantially increased the melting temperature; also recorded: most significant stabilization effect”. The ΔTm [15] was 0.997 °C and -0.4983 °C and -0.9966 °C, the “effect on melting temperature (TSA)” value ([16]; Iad proteins other than IadK2, result in words) was “no profound effects” and the ΔTm ([16]; IadC with IAA) was -0.4983 °C and 0.9966 °C and 0 °C. The ΔTm ([16]; IadF with IAA) was 0.4983 °C and -0.9966 °C and 0 °C, the ΔTm ([16]; IadG with IAA) was 1.495 °C (2×) and 1.993 °C and the ΔTm ([16]; IadH with IAA) was 0.9966 °C and 0 °C and -0.4983 °C. The ΔTm ([16]; IadI with IAA) was 0.4983 °C and -0.4983 °C and -1.993 °C, the ΔTm ([16]; IadJ with IAA) was 0 °C and 0.4983 °C and 1.495 °C and the Kd [17] was roughly 300 nM.
